Reference: patent US8445428B2, “Plant derived antibiotic peptide rich in glycine” (Uniao Brasiliense de Educacao e Cultura—UBEC, priority 2006, dated 2013)

What was measured:
Type in all cases: cell-based
Klebsiella sp. = test: Bioassay against bacteria: growth in LB medium, absorbance at 600 nm; conditions: micromolar concentrations, 37° C. for 4 hours
Description: (§1) The bioassays against bacteria were performed using 1.0 ml of Luria Bertani medium (NaCl 10 g.l^−1, yeast extract 5 g.l^−1 and bactopeptone […]). Two species, namely Klebsiella sp. and Proteus sp., were used, with the protein under test was restricted to micromolar concentrations. The bacteria grew in the LB medium during 16-18 hours at 37° C. before being evaluated with the proteins. Distilled water was used as negative control and chloramphenicol 40 μg.ml^−1 as positive control. Protein from guava seeds was incubated against the bacteria at 37° C. for 4 hours. Bacterial growth was assessed by an absorbance reading at 600 nm at each hour of the experiment. Each experiment was performed in triplicate.

Proteus sp. = test: as above; conditions: micromolar concentrations, 37° C. for 4 hours
Description: as §1

Staphylococcus aureus = test: Preliminary bioassays against gram-positive bacteria; conditions: such as Staphylococcus aureus

Sequence: RESPSSRMECYEQAERYGYGGYGGGRYGGGYGSGRGQPVGQGVERSHDDNRNQPR (SEQ ID NO: 1) (RESPSSRMECYEQAERYGYGGYGGGRYGGGYGSGRGQPVGQGVERSHDDNRNQPR; listed as Psidium guajava) [Pg-AMP1, glycine rich anti-microbial peptide of 55 amino acids, about 5 kDa, purified from guava (Psidium guajava) seeds]
- inhibitory activity (Klebsiella sp.): 90%
- inhibitory activity (Proteus sp.): 30%
- inhibitory activity (Staphylococcus aureus): did not reveal any inhibitory activity
